According to PubChem BioAssay (NCI):
Several values for one entry are separate records, joined by “and”; a condition that tells them apart may be missing. Equal values may be shown once.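 All cell lines were grown in 96-well plates and treated with compound for 48 hours. GI50 = concentration required for 50% inhibition of growth. At the TGI there is no net growth.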

Columns and labels:
Assay in all cases: NCI anticancer screen, dose series, 48 h
[1] = system: 786-0 renal
[2] = system: EKVX NSCLC
[3] = system: IGROV1 ovarian
[4] = system: K-562 leukemia
[5] = system: MDA-MB-435
[6] = system: MOLT-4 leukemia
[7] = system: NCI-H23 lung
[8] = system: NCI/ADR-RES ovarian
[9] = system: TK-10 renal
[10] = system: UACC-62 melanoma

Row | Structure (SMILES) | GI50 [1] [µM] | TGI [1] [µM] | GI50 [2] [µM] | TGI [2] [µM] | GI50 [3] [µM] | TGI [3] [µM] | GI50 [4] [µM] | TGI [4] [µM] | GI50 [5] [µM] | TGI [5] [µM] | GI50 [6] [µM] | TGI [6] | GI50 [7] [µM] | TGI [7] [µM] | GI50 [8] [µM] | TGI [8] [µM] | GI50 [9] [µM] | TGI [9] [µM] | GI50 [10] [µM] | TGI [10] [µM]
1 | CNC(=O)c1cc(-c2ccc(F)cc2)cc(-c2ccc(S(=O)(=O)N3CCCC3)cc2)c1N | 24.4 | > 25 | 10.2 | > 25 | > 25 | > 25 | 20.4 | > 25 | > 25 | > 25 | 15.5 | > 25 µM | > 25 | > 25 | 16.2 | > 25 | > 25 | > 25 | > 23.1 | > 25
2 | CC[C@@H](C(=O)[C@@H](C)[C@@H](O)[C@H](C)[C@@H]1O[C@@H]([C@@H](CC)C(=O)O)CC[C@@H]1C)[C@H]1O[C@]2(C=C[C@@H](O)[C@]3(CC[C@@](C)([C@H]4CC[C@](O)(CC)[C@H](C)O4)O3)O2)[C@H](C)C[C@@H]1C | 1.25 | 19.2 | 1.11 | 24.8 | 2.05 | > 84.7 | 0.207 | 5.72 | 1.08 | 2.72 | 0.911 | 5.17 µM | 0.528 | 11.4 | 1.32 | 51.4 | 0.942 | 17.8 | 1.04 | 2.33
3 | N#Cc1cc2c(cc1Cl)SC(=Nc1ccccc1)N(S(=O)(=O)c1ccc(Br)s1)S2(=O)=O | 16.7 | 32.4 | 19.5 | 35.1 | 12.8 | 31.1 | 14.5 | 43.8 | 16.1 | 33.9 | 15.9 | 46.2 µM | 19.3 | 38 | 19.8 | 43.8 | 19.7 | 35.6 | 20.8 | 36.3
4 | Cn1cccc1-c1cc(-c2ccccc2)nc(N)c1C#N | > 96.4 | > 100 | 98.1 | > 100 | > 100 | > 100 | > 100 | > 100 | > 100 | > 100 | > 70 | > 100 µM | > 100 | > 100 | > 100 | > 100 | > 100 | > 100 | 34.5 | > 100
5 | O=C1C(OC(=O)c2ccccc2)=C(c2ccc(O)cc2)C(=O)C(OC(=O)c2ccccc2)=C1c1ccc(O)cc1 |  | > 100 |  | > 100 |  | > 100 |  | > 100 |  | > 100 |  | > 100 µM |  | > 100 |  | > 100 |  | > 100 |  | > 100
6 | Nc1ccn(C2CC3OCC3O2)c(=O)n1 (centres undefined) |  | > 100 |  | > 100 |  | > 100 |  | > 100 |  | > 100 |  | > 100 µM |  | > 100 |  | > 100 |  | > 100 |  | > 100
7 | Cc1c2ccccc2c(C)n2c1nc1cc(Cl)c(Cl)cc12 | > 100 | > 100 | 93.7 | > 100 | 8.62 | > 100 | 14.3 | 72.1 | > 100 | > 100 | 16 | 8.62 µM and 46.5 µM | > 100 | > 100 | > 100 |  | > 100 | > 100 | 45.2 | > 100
8 | O=C1/C(=C/c2ccc(O)cc2)Oc2ccccc21 |  | > 100 |  | > 100 |  | > 100 |  | > 100 |  | > 100 |  | > 100 µM |  | > 100 |  | > 100 |  | > 100 |  | > 100
9 | Cc1cn2cc(-c3ccc4c(c3)CC(=O)N4)nc2s1 | > 100 | > 100 | 79.2 | > 100 | > 100 | > 100 | 61.9 | > 100 | 91 | > 100 | 50.7 | > 100 µM | > 100 | > 100 | > 100 | > 100 | > 100 | > 100 | 33.7 | > 100
